According to PubChem BioAssay (NCI):
“And” between values parts separate entries of the source, which are not always exact repeats. Identical values can stand only once.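 Method: 48-hour compound exposure of cells in 96-well plates, five concentrations, linear interpolation of endpoints. The concentration for 50% growth inhibition is given as GI50. At the TGI there is no net growth.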

Experiments:
Assay in all cases: growth of human tumour cells (NCI), 48 h
KM12 colon = system: KM12 colon
MDA-MB-231 breast = system: MDA-MB-231 breast
NCI/ADR-RES ovarian = system: NCI/ADR-RES ovarian
HS 578T breast = system: HS 578T breast
HCT-116 colon = system: HCT-116 colon
M14 melanoma = system: M14 melanoma
HCC-2998 colon = system: HCC-2998 colon
NCI-H23 lung = system: NCI-H23 lung
SN12C renal = system: SN12C renal
IGROV1 ovarian = system: IGROV1 ovarian

## CN1CC=C(c2cc(NC(=O)Nc3ccc(Oc4ccnc(NC(=O)C5CC5)c4)c(F)c3)cc(C(F)(F)F)c2)CC1
KM12 colon
  GI50: 0.0332 µM
  TGI: 0.68 µM
MDA-MB-231 breast
  GI50: 0.176 µM
  TGI: 0.806 µM
NCI/ADR-RES ovarian
  GI50: 2.71 µM
  TGI: 13.4 µM
HS 578T breast
  GI50: 0.982 µM
  TGI: 3.09 µM
HCT-116 colon
  GI50: 0.167 µM
  TGI: 1.68 µM
M14 melanoma
  GI50: 0.524 µM
  TGI: 1.48 µM
HCC-2998 colon
  GI50: 0.281 µM
  TGI: 1.97 µM
NCI-H23 lung
  GI50: 0.172 µM
  TGI: 0.712 µM
SN12C renal
  GI50: 0.159 µM
  TGI: 1.27 µM
IGROV1 ovarian
  GI50: 0.244 µM
  TGI: 1.34 µM

## N#CC(C#N)=NNc1ccc2cn[nH]c2c1
KM12 colon
  TGI: > 100 µM
MDA-MB-231 breast
  TGI: > 100 µM
NCI/ADR-RES ovarian
  TGI: > 100 µM
HS 578T breast
  TGI: > 100 µM
HCT-116 colon
  TGI: 44.7 µM
M14 melanoma
  TGI: > 100 µM
NCI-H23 lung
  TGI: 50 µM
SN12C renal
  TGI: 92.3 µM
IGROV1 ovarian
  TGI: > 100 µM

## O=C1Nc2ccccc2/C1=C\c1c(-c2ccccc2)nc2sccn12
KM12 colon
  GI50: 0.833 µM
  TGI: 20.1 µM
MDA-MB-231 breast
  GI50: 1.39 µM
  TGI: 6.18 µM
NCI/ADR-RES ovarian
  GI50: 1.17 µM
  TGI: 5.13 µM
HS 578T breast
  GI50: 5.58 µM
  TGI: 18.7 µM
HCT-116 colon
  GI50: 1.7 µM
  TGI: 8.96 µM
M14 melanoma
  GI50: 1.98 µM
  TGI: 7.61 µM
NCI-H23 lung
  GI50: 1.63 µM
  TGI: 4.18 µM
SN12C renal
  GI50: 2.75 µM
  TGI: 14.4 µM
IGROV1 ovarian
  GI50: 1.98 µM
  TGI: > 54.2 µM

## Cc1ccccc1C1=C(c2cn(C)c3ccccc23)C(=O)NC1=O
KM12 colon
  GI50: 10.8 µM
  TGI: > 25 µM
MDA-MB-231 breast
  GI50: 21.5 µM
  TGI: > 25 µM
NCI/ADR-RES ovarian
  GI50: 24.3 µM
  TGI: > 25 µM
HS 578T breast
  GI50: 10 µM
  TGI: > 25 µM
HCT-116 colon
  GI50: 7.77 µM
  TGI: > 25 µM
M14 melanoma
  GI50: > 25 µM
  TGI: > 25 µM
HCC-2998 colon
  GI50: > 25 µM
  TGI: > 25 µM
NCI-H23 lung
  GI50: > 25 µM
  TGI: > 25 µM
SN12C renal
  GI50: > 22.7 µM
  TGI: > 25 µM
IGROV1 ovarian
  GI50: > 25 µM
  TGI: > 25 µM

## CS(=O)(=O)CCNCc1ccc(-c2ccc3ncnc(Nc4ccc(OCc5cccc(F)c5)c(Cl)c4)c3c2)o1
KM12 colon
  GI50: 8.92 µM and 2.03 µM and 5.25 µM
  TGI: > 10 µM and 4 µM and 24.5 µM
MDA-MB-231 breast
  GI50: > 10 µM and 4.14 µM and 9.07 µM
  TGI: > 10 µM and > 100 µM and 29.5 µM
NCI/ADR-RES ovarian
  GI50: 5.52 µM and 2.9 µM and 4.32 µM
  TGI: > 10 µM and > 100 µM and 50.3 µM
HS 578T breast
  GI50: > 10 µM and 8.49 µM and 8.64 µM
  TGI: > 10 µM and > 53.7 µM and 57.6 µM
HCT-116 colon
  GI50: > 10 µM and 7.19 µM and 10.3 µM
  TGI: > 10 µM and > 100 µM and 23.6 µM
M14 melanoma
  GI50: 8.6 µM and 2.56 µM and 4.22 µM
  TGI: > 10 µM and > 20.2 µM and 12.2 µM
HCC-2998 colon
  GI50: > 10 µM and 4.1 µM and 8.86 µM
  TGI: > 10 µM and 17.8 µM and 24.2 µM
NCI-H23 lung
  GI50: > 10 µM and 7.82 µM and 10.4 µM
  TGI: > 10 µM and > 100 µM and 31.1 µM
SN12C renal
  GI50: > 10 µM and 9.1 µM
  TGI: > 10 µM and > 100 µM and 36.2 µM
IGROV1 ovarian
  GI50: 2.02 µM and 0.338 µM and 0.387 µM
  TGI: > 10 µM and 26.1 µM

## COc1cc2c(NCCCCCO)ncnc2c(OC)c1OC
KM12 colon
  TGI: > 100 µM
MDA-MB-231 breast
  TGI: > 100 µM
NCI/ADR-RES ovarian
  TGI: > 100 µM
HS 578T breast
  TGI: > 100 µM
HCT-116 colon
  TGI: > 100 µM
M14 melanoma
  TGI: > 100 µM
HCC-2998 colon
  TGI: > 100 µM
NCI-H23 lung
  TGI: > 100 µM
SN12C renal
  TGI: > 100 µM
IGROV1 ovarian
  TGI: > 100 µM

## N#CC1C[C@@H]2CC3(CCC2CN1C(=O)c1ccccc1)OCCO3 (some centres not stated)
KM12 colon
  TGI: > 100 µM
MDA-MB-231 breast
  GI50: > 100 µM
  TGI: > 100 µM
NCI/ADR-RES ovarian
  GI50: > 100 µM
  TGI: > 100 µM
HS 578T breast
  GI50: > 100 µM
  TGI: > 100 µM
HCT-116 colon
  TGI: > 100 µM
M14 melanoma
  TGI: > 100 µM
HCC-2998 colon
  TGI: > 100 µM
NCI-H23 lung
  TGI: > 100 µM
SN12C renal
  TGI: > 100 µM
IGROV1 ovarian
  TGI: > 100 µM

## Oc1cc(N2CC2)c(O)cc1N1CC1
KM12 colon
  GI50: 1.63 µM
  TGI: 4.44 µM
MDA-MB-231 breast
  GI50: 10.3 µM
  TGI: 64.2 µM
NCI/ADR-RES ovarian
  GI50: 0.961 µM
  TGI: 7.55 µM
HS 578T breast
  GI50: 2.33 µM
  TGI: > 22.9 µM
HCT-116 colon
  GI50: 0.615 µM
  TGI: 10.8 µM
M14 melanoma
  GI50: 0.511 µM
  TGI: 1.93 µM
HCC-2998 colon
  GI50: 1.49 µM
  TGI: 2.98 µM
NCI-H23 lung
  GI50: 0.396 µM
  TGI: 1.8 µM
SN12C renal
  GI50: 0.586 µM
  TGI: 5.07 µM
IGROV1 ovarian
  GI50: 0.794 µM
  TGI: 3.6 µM

## ClCCCSSCCCCl
KM12 colon
  TGI: > 95.1 µM
MDA-MB-231 breast
  TGI: > 80.2 µM
NCI/ADR-RES ovarian
  TGI: > 78 µM
HS 578T breast
  TGI: 64.9 µM
HCT-116 colon
  TGI: > 90.8 µM
M14 melanoma
  TGI: > 100 µM
HCC-2998 colon
  TGI: > 88.2 µM
NCI-H23 lung
  TGI: > 100 µM
SN12C renal
  TGI: > 95.1 µM
IGROV1 ovarian
  TGI: > 100 µM

## CN1CCN(C(=O)[C@@]2(C)CC[C@]3(C)CC[C@]4(C)C(=CC[C@@H]5[C@@]6(C)CCC(=O)NC(C)(C)[C@@H]6CC[C@]54C)[C@@H]3C2)CC1
KM12 colon
  GI50: 1.56 µM
  TGI: 3.13 µM
MDA-MB-231 breast
  GI50: 1.7 µM
  TGI: 3.47 µM
NCI/ADR-RES ovarian
  GI50: 3 µM
  TGI: 11.9 µM
HS 578T breast
  GI50: 2.06 µM
  TGI: 6.78 µM
HCT-116 colon
  GI50: 1.13 µM
  TGI: 2.45 µM
M14 melanoma
  GI50: 1.69 µM
  TGI: 3.38 µM
HCC-2998 colon
  GI50: 1.51 µM
  TGI: 3.04 µM
NCI-H23 lung
  GI50: 2.48 µM
  TGI: 8.91 µM
SN12C renal
  GI50: 1.46 µM
  TGI: 3.3 µM
IGROV1 ovarian
  GI50: 1.77 µM
  TGI: 3.77 µM

## COc1cc(-c2cc3ncccc3c3nc(OCCN(C)C)c4cccnc4c23)cc(OC)c1OC
KM12 colon
  GI50: 1.14 µM
  TGI: > 100 µM
NCI/ADR-RES ovarian
  GI50: 0.383 µM
  TGI: 2.1 µM
HS 578T breast
  GI50: 1.5 µM
  TGI: 14.9 µM
M14 melanoma
  GI50: 0.485 µM
  TGI: 10.4 µM
HCC-2998 colon
  GI50: 0.727 µM
  TGI: 3.1 µM
NCI-H23 lung
  GI50: 0.619 µM
  TGI: 3.31 µM
SN12C renal
  GI50: 0.581 µM
  TGI: 3.09 µM
IGROV1 ovarian
  GI50: 0.466 µM
  TGI: 1.99 µM

## COc1cc2c3c(n(CCCN(CCCN(CCCn4c5c(c6ccccc6c4=O)C(=O)c4ccccc4-5)C(=O)OC(C)(C)C)C(=O)OC(C)(C)C)c(=O)c2cc1OC)-c1cc2c(cc1C3=O)OCO2
KM12 colon
  GI50: > 100 µM
  TGI: > 100 µM
MDA-MB-231 breast
  GI50: 28.5 µM
  TGI: > 100 µM
NCI/ADR-RES ovarian
  GI50: > 100 µM
  TGI: > 100 µM
HCT-116 colon
  GI50: > 100 µM
  TGI: > 100 µM
M14 melanoma
  GI50: > 100 µM
  TGI: > 100 µM
NCI-H23 lung
  GI50: > 100 µM
  TGI: > 100 µM
SN12C renal
  GI50: > 100 µM
  TGI: > 100 µM
IGROV1 ovarian
  GI50: > 100 µM
  TGI: > 100 µM

## CC1CCC2C(C)C(=O)OC3OC4(C)CCC1C32OO4 (configuration not stated)
KM12 colon
  GI50: > 100 µM
  TGI: > 100 µM
MDA-MB-231 breast
  TGI: > 100 µM
HS 578T breast
  GI50: > 100 µM
  TGI: > 100 µM
HCT-116 colon
  TGI: > 100 µM
M14 melanoma
  TGI: > 100 µM
HCC-2998 colon
  TGI: > 100 µM
NCI-H23 lung
  GI50: > 100 µM
  TGI: > 100 µM
SN12C renal
  TGI: > 100 µM
IGROV1 ovarian
  TGI: > 100 µM

## Cc1ccc([P+](Cc2ccccc2)(c2ccccc2)c2ccccc2)cc1
KM12 colon
  GI50: 1.69 µM
  TGI: 12 µM
MDA-MB-231 breast
  GI50: 2.17 µM
  TGI: 19.2 µM
NCI/ADR-RES ovarian
  GI50: 47.8 µM
  TGI: > 100 µM
HS 578T breast
  GI50: 3.19 µM
  TGI: 83.4 µM
HCT-116 colon
  GI50: 1.81 µM
  TGI: > 100 µM
M14 melanoma
  GI50: 2.78 µM
  TGI: 16.4 µM
HCC-2998 colon
  GI50: 2.66 µM
  TGI: 25.1 µM
SN12C renal
  GI50: 2.66 µM
  TGI: 13.1 µM
IGROV1 ovarian
  GI50: 1.92 µM
  TGI: 19 µM

## COc1cc2c(c(O)c1Cl)C(=O)c1c(O)cc(C[C@H](C)O)cc1[C@H]2[C@H]1c2cc(C[C@H](C)O)cc(O)c2C(=O)c2c1cc(OC)c(Cl)c2O
KM12 colon
  TGI: 75 µM and > 100 µM
NCI/ADR-RES ovarian
  GI50: 54.8 µM and 58.8 µM
  TGI: 75 µM and > 100 µM
HS 578T breast
  TGI: 75 µM and 64.9 µM
HCT-116 colon
  TGI: 75 µM and > 100 µM
M14 melanoma
  TGI: 75 µM and > 100 µM
HCC-2998 colon
  TGI: 75 µM and > 100 µM
NCI-H23 lung
  TGI: 75 µM and 84.6 µM
SN12C renal
  TGI: 75 µM and > 100 µM
IGROV1 ovarian
  TGI: 39 µM and > 100 µM
